System: Hair follicles (HF)
Test: Hair follicle (HF) explant growth assay
Format: cell-based, human
Conditions: HF elongation after 7-8 days; 20 ng/ml of each growth factor, hypoxanthine 2 μM; mean of 6-8 independent experiments
Experimental: Hair follicles (HF) were extracted from the occipital area of 6-8 individuals with hair loss. The HFs were processed to equivalent lengths and cultured in William's E medium supplemented with 100 units/ml penicillin G, 100 μg/ml streptomycin, 0.25 μg/ml amphotericin B, […], 1 ng/ml hydrocortisone; basic medium or control medium or basic medium supplemented with 20 ng/ml of each of IGF-1, FGF-2, PDGF, Wnt-3A (Wnt), Noggin (Nog), Ephrin A3 (Eph), SHH and BMP-6 as well as hypoxanthine (Hyx) at 2 μM final concentration. The “GF10 cocktail” or “GF10” includes all nine growth factors and hypoxanthine while the “GF7 cocktail” or “GF7” contains six growth factors (all growth factors of GF10 except for FGF-10, Eph and SHH) and hypoxanthine. Growth promotion was measured as elongation of the HF at the end of 7-8 days. All growth factors and hypoxanthine promoted growth individually and in combination (FIG. 1 and Table 1).

For `O=c1[nH]cnc2nc[nH]c12` [Hypx, hypoxanthine], the “Increase in growth (% control) Mean” value was 104.1618 % control.
With FGF2: fibroblast growth factor-2 the “Increase in growth (% control) Mean” value was 146.474 % control.
With “IGF1: insulin-like growth factors-1, cellular growth factor” the “Increase in growth (% control) Mean” value was 39.31 % control.
For PDGF: platelet-derived growth factor-AA, the “Increase in growth (% control) Mean” value was 69.56 % control.
